According to US11992011B2, “Compounds for controlling plant pathogens” (VIB VZW, priority 2017, dated 2024):

Experiments:
[1] = test system: J2 juveniles of Heterodera schachtii; experiment: In vitro nematode toxicity assay, H. schachtii J2 (Example 11); conditions: PA 100 μM, Vertimec 0.02 v/v % abamectin, control 83.1±7.6
Protocol: (§1) J2 juveniles of Meloidogyne graminicola and Heterodera schachtii were isolated from Echinocloa cruss-galli roots and sugar beet roots respectively. Per treatment and species combination, 300 nematodes were isolated and divided over six wells that contained 1.5 ml of either sterilized tap water, a 100 μM C4H inhibitor solution or a 0.02 v/v % solution of the nematicide abamectin (Vertimec®, Syngenta AG). The nematodes were incubated in the dark on a slow-moving rotary shaker (50 rpm) and the number of living nematodes was counted regularly using a binocular microscope.
(§2) To rule out definitively that the compounds of the invention operate through direct toxicity to nematodes, an in vitro toxicity assay on J2 juveniles of the nematodes Meloidogyne graminicola and Heterodera schachtii was performed.
(§3) First, survival upon exposure to the C4H inhibitor piperonylic acid (PA) was compared to a negative control (tap water) and a positive control, the commercial nematicide Vertimec (0.02% Abamectin). A detailed survival curve is shown in FIG. 12a (M. graminicola) and FIG. 12b (H. schachtii).

[2] = test system: spring wheat (Triticum aestivum cv. Fielder); experiment: Yield and fertility in pathogen-free spring wheat (Example 2); conditions: 300 μM foliar spray three times; vs. control
Protocol: For Example 2, the spring wheat cultivar Fielder was used. Seeds were obtained from plants grown in the greenhouse complex of the VIB (Zwijnaarde, Belgium). Seeds were sown directly in potting soil (four seeds to a pot, thinned to three plants per pot after emergence) and placed in a growth chamber at 21° C. with 16 hours per day of light. These plants were grown until harvest; they were sprayed three times with the compounds of the invention at a concentration of 300 μM using the protocol described in the chemicals section. Spraying took place 14 and 21 days after emergence and a final time at heading.
In all cases model assumptions were verified using diagnostic plots (residuals, QQ-plot, scale-location and residuals-leverage). Outliers were removed only if they were outliers both in the statistical sense and if there was a biological reason for removal (e.g. the plant was stunted or developed a secondary infection).
To determine the effects of C4H inhibition on yield and fertility, spring wheat (Triticum aestivum cv. Fielder) was grown in a pathogen-free growth chamber until maturity and treated with a control or C4H inhibitor-containing foliar spray at regular intervals. At harvest, the number of ears per plant, the seed mass, the size of the seeds and the germination ability of the freshly harvested seeds were measured. Seed size was measured using the stacking density of the seed as a proxy measure; if a given seed mass takes up a greater volume, then the individual seeds must be larger.

[3] = test system: Fusarium proliferatum (isolate Fpr18); experiment: Onion seedling emergence with PA seed coating, Fusarium proliferatum (Example 12); type: in vivo; conditions: onion seeds with 300 μM PA coating vs mock coating
Protocol: Seed coatings were applied by dipping seeds in a coating solution containing 20 g/I high viscosity carboxymethylcellulose (Sigma-Aldrich, Saint Louis, USA) in distilled water as well as 300 μM of the target compound. Seeds were then dried overnight at room temperature.
Onion seeds were coated with a 300 μM PA solution as outlined in the chemical treatments section. F. oxysporum (isolate Foc26), F. solani (isolate Fso18) and F. proliferatum (isolate Fpr18) were originally extracted from Vietnamese onion fields. Inoculum was obtained as described in the fungal culture section. The inoculum was diluted to a concentration of 1.0×10^7 spores per ml with sterile PBS buffer. The coated seeds were then soaked in the spore solution for one hour. To avoid excessive PA leaching from the PA coating, 100 μM of PA was added to the spore solution.
After soaking in the PA solution, seeds were left to dry for thirty minutes. Twenty seeds were then sowed per pot in potting soil; three pots were used per treatment and per fungal isolate (for a total of 60 seeds per treatment-isolate combination). The pots were covered in cling film and left on a window sill at room temperature. After eight and ten days, the number of germinated seedlings per pot was counted.
Germination experiments were analyzed by fitting a three-parameter log-logistic model as implemented in the R drc package.

[4] = test system: Alternaria solani, Botrytis cinerea R16, Fusarium graminearum PH1 and Fusarium graminearum GFP; type: cell-based
[5] = test system: J2 juveniles of Meloidogyne graminicola; experiment: In vitro nematode toxicity assay, M. graminicola J2 (Example 11); conditions: Vertimec 0.02 v/v % abamectin
Protocol: as §1, §2, §3
In a second experiment, a broader range of C4H inhibitors were assayed in the same manner. The toxicity of piperonylic acid (PA), piperine (PIP), 4-propynyloxybenzoic acid (4PB), and 3-(4-pyridyl)acrylic acid (3PA) to J2 juveniles of Meloidogyne graminicola was compared to a negative control (tap water) and a true nematicide (Vertimec, active ingredient abamectin).

[6] = test system: tobacco cell cultures (Nicotinium tabacum BY2); conditions: Schoch et al., 2002; cited from earlier work
[7] = test system: tomato; experiment: Phytotoxicity of foliar spray in uninfected tomato (Example 1); type: in vivo, Solanum lycopersicum; conditions: 500 μM foliar spray, 8 plants per treatment
Protocol: Tomato seeds, cv. Moneymaker (Vreeken's Zaden, Dordrecht, the Netherlands) were sown on autoclaved potting soil coveed with polyethylene film and placed at 24° C. for eight days. Seedlings were then transferred to individual SAP-filled pots and placed in a growth chamber at 24° C. Plants were watered three times per week with 25 ml of quarter-strength Hoagland solution for the first two weeks and half-strength thereafter.
Unless otherwise mentioned, all chemicals for nematode experiments were applied as a foliar spray consisting of the target compound at a concentration of 300 μM together with 0.1% (v/v) Tween 20 surfactant (Calbiochem) in distilled water. Again unless otherwise mentioned, all treatments for the nematode experiments were carried out three times: one and eight days before pathogen inoculation and seven days after pathogen inoculation. In all cases, plants were sprayed until run-off with an atomizer.
Short-term phytotoxicity experiments (Example 1) were analyzed using non-parametric methods. For each variable, overall significance was determined using the Kruskal-Wallis test (Kruskal and Wallis, 1952), followed by a posthoc Conover-Iman test (Conover and Iman, 1981) with Hommel multiplicity correction (Hommel, 1988) if the Kruskal-Wallis test was significant. When only two groups were present, the Wilcoxon-Mann-Whitney test was used (Mann and Whitney, 1947).
To test whether C4H inhibitors induce phytotoxic effects in crops, uninfected tomato, wheat and carrot were treated with piperonylic acid (PA), 4-iodobenzoic acid (4-IBA) and piperic acid (PIA) at a concentration of 500 μM through foliar application. At harvest, leaf area (or shoot length in the case of wheat) and primary root length were recorded. The BBCH developmental stage (Lancashire et al., 1991), a measure of developmental retardation, was used to test for effects on development. Finally, the presence of visible signs of phytotoxicity such as chlorosis, discoloration or necrosis was recorded.

[8] = test system: Botrytis cinerea (isolate R16); experiment: Botrytis cinerea infection of detached tomato leaves (Example 13); type: in vivo; design: dose or concentration left out as unconfirmed; conditions: spray containing PA, four days after inoculation, vs control
Protocol: Tomato plants (cv. Moneymaker) were grown for four weeks in potting soil as described in the plant material section. Six hours before inoculation, the third leaf of each tomato plant was detached. The petioles were wrapped in wet tissue paper and the leaves were placed on a petri dish. […] Finally, the tray was covered with a plastic autoclave bag to keep humidity at 100%.
Botrytis cinerea (line R16) spores were obtained as described in the fungal culture section, centrifuged for five minutes at 3000 rpm and resuspended to a concentration of 1.0×10^6 spores per ml with a solution of 0.01 M glucose and 0.0067 M KH2PO4. The spore suspension was left at room temperature for one hour to trigger germination. […]
Six drops of spore suspension of 15 μl each were spotted on each detached tomato leaf, after which the tray was covered again. The tray was placed at room temperature away from direct sunlight and left for four days. At this point, chlorophyll fluorescence measurements were taken to assess the success of infection. Two parameters were assessed: whether the B. cinerea lesion had spread beyond the droplet area (successful invasion) and the total surface area of successfully established lesions (post-invasion growth).

Compound: O=C(O)c1ccc2c(c1)OCO2 [PA, Piperonylic acid]
- survival after 24 hours of exposure [1]: 92.8±2.5%
- Total yield (seed mass) [2]: not significantly different
- germination after fourteen days of freshly harvested seeds [2]: not significantly different
- mean number of ears per plant [2]: the same in all treatments
- seed size (stacking density) [2]: no effect
- improvement of seedling emergence [3]: +79%
- germination of fungal spores on agar [4]: germinated normally
- mycelium growth compared to control agar [4]: slight (species-specific) growth retardation
- survival after 24 hours of exposure ([5]; PA 100 μM, control 94.2±2.4): 97.1±1.8%
- survival at the end of the experiment ([5]; second experiment, C4H inhibitor 100 μM, water control 93%): 95%
- accumulation of salicylic acid [6]: induces the accumulation of the defense hormone salicylic acid
- Leaf Area ([7]; mean ± standard deviation): 11.83 ± 1.70 cm^2
- Root length ([7]; mean ± standard deviation): 7.95 ± 1.83 cm
- BBCH stage ([7]; median ± interquartile range): 102 ± 1.0
- change of mean size of successfully established/spreading lesions [8]: −62%
- change of number of inoculation spots in which fungal lesions developed [8]: −50%
